Calls of active or inactive are those of the source. No cut-off for these calls is given here.
Key:
[1] = system: Protein cereblon/GTPase KRas (Homo sapiens), P01116+Q96SW2 [G12D]; assay: PROTAC activity at CRBN/KRAS G12D mutant in human ASPC1 cells assessed as induction of KRAS G12D mutant degradation at 50 nM measured after 24 hrs by immunoblot analysis relative to control; assay type: cell-based
[2] = system: Protein cereblon/GTPase KRas (Homo sapiens), P01116+Q96SW2 [G12D]; assay: PROTAC activity at CRBN/KRAS G12D mutant in human ASPC1 cells assessed as induction of KRAS G12D mutant degradation at 5 nM measured after 24 hrs by immunoblot analysis relative to control; assay type: cell-based
[3] = system: Protein cereblon/GTPase KRas (Homo sapiens), P01116+Q96SW2 [G12D]; assay: PROTAC activity at CRBN/KRAS G12D mutant in human ASPC1 cells assessed as induction of KRAS G12D mutant degradation at 100 nM measured after 24 hrs by immunoblot analysis relative to control; assay type: cell-based
[4] = system: Protein cereblon/GTPase KRas (Homo sapiens), P01116+Q96SW2 [G12D]; assay: PROTAC activity at CRBN/KRAS G12D mutant in human ASPC1 cells assessed as induction of KRAS G12D mutant degradation at 5 uM measured after 24 hrs by immunoblot analysis relative to control; assay type: cell-based
[5] = system: Protein cereblon/GTPase KRas (Homo sapiens), P01116+Q96SW2 [G12D]; assay: PROTAC activity at CRBN/KRAS G12D mutant in human ASPC1 cells assessed as induction of KRAS G12D mutant degradation at 1 uM measured after 24 hrs by immunoblot analysis relative to control; assay type: cell-based
[6] = system: Protein cereblon/GTPase KRas (Homo sapiens), P01116+Q96SW2 [G12D]; assay: PROTAC activity at CRBN/KRAS G12D mutant in human ASPC1 cells assessed as induction of KRAS G12D mutant degradation at 15 nM measured after 24 hrs by immunoblot analysis relative to control; assay type: cell-based
ASPC1 = assay: Antiproliferative activity against human ASPC1 cells harbouring KRAS G12D mutant assessed as inhibition of cell growth measured after 72 hrs by Cell titer glo method; assay type: functional, cell-based; settings: ASPC1, 72 h
[7] = Antitumor activity against human PK-59 cells xenografted in female Balb/c nude mouse model assessed as tumor growth inhibition at 1.81 mg/kg, iv QW measured after 28 days relative to control; assay type: functional; settings: PK-59, 672 h, time 28 day, read-out: TGI
AGS = assay: Antiproliferative activity against human AGS cells harbouring KRAS G12D mutant assessed as inhibition of cell growth measured after 72 hrs by Cell titer glo method; assay type: functional, cell-based
[8] = Inhibition of ERK phosphorylation in human ASPC1 cells harbouring KRAS G12D mutant measured after 24 hrs; assay type: cell-based; settings: ASPC1, 24 h
[9] = Inhibition of ERK phosphorylation in human GP2d cells harbouring KRAS G12D mutant measured after 24 hrs; assay type: cell-based
[10] = Toxicity in female Balb/c nude mouse xenografted with human PK-59 cells assessed as change in body weight at 1.8 mg/kg, iv QW measured after 28 days; assay type: organism-based; settings: in vivo, 672 h, time 28 day
[11] = Inhibition of ERK phosphorylation in human PK-59 cells harbouring KRAS G12D mutant measured after 24 hrs; assay type: cell-based; settings: PK-59, 24 h
[12] = Inhibition of ERK phosphorylation in human AGS cells harbouring KRAS G12D mutant measured after 24 hrs; assay type: cell-based
[13] = Inhibition of Raf (unknown origin)/GTP loaded KRas G12D mutant interaction preincubated for 15 mins followed by anti-tag1-eu3 and Tag2-XL665 antibody addition and measured for 120 mins by HTRF method; set-up: species or system Homo sapiens
[14] = Antiproliferative activity against human PK-59 cells harbouring KRAS G12D mutant assessed as inhibition of cell growth measured after 72 hrs by Cell titer glo method; assay type: functional, cell-based; settings: PK-59, 72 h
[15] = Antiproliferative activity against human GP2d cells harbouring KRAS G12D mutant assessed as inhibition of cell growth measured after 72 hrs by Cell titer glo method; assay type: functional, cell-based
GTPase KRas = GTPase KRas (Homo sapiens, UniProt P01116, G12D); assay: Binding affinity to 6 His-tagged GDP-loaded human KRAS G12D mutant assessed as GDP-GTP exchange preincubated for 30 mins followed by GTP addition for 30 mins by HTRF method
GP2d = assay: PROTAC activity at CRBN/KRAS G12D mutant in human GP2d cells assessed as induction of KRAS G12D mutant degradation at 0.004 to 250 nM measured after 24 hrs by immunoblot analysis; assay type: cell-based; settings: dose 0.004-250 nM

Chain of Protein cereblon/GTPase KRas (Homo sapiens), P01116+Q96SW2 [G12D] (P01116 whole entry G12D): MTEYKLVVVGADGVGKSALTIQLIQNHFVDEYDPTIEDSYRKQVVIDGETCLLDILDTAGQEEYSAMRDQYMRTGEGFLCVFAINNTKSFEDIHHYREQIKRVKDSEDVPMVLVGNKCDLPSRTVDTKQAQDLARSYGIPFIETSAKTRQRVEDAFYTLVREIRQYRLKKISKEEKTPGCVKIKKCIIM
Chain of Protein cereblon/GTPase KRas (Homo sapiens), P01116+Q96SW2 [G12D] (Q96SW2 whole entry partner): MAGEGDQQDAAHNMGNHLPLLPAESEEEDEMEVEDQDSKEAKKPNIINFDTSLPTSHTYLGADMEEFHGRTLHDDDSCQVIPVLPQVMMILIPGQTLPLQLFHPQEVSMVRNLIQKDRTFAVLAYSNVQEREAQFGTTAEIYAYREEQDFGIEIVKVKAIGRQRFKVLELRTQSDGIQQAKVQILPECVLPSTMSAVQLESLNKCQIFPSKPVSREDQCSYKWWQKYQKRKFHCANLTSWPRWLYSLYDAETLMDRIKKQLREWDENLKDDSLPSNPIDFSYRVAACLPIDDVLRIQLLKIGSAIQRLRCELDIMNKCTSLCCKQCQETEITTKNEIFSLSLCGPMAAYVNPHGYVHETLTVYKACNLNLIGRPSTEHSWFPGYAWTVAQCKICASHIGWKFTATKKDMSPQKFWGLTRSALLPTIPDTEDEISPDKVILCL
Chain of GTPase KRas (P01116 whole entry G12D): as the sequence (P01116 whole entry G12D) above

C#Cc1c(F)ccc2cc(O)cc(-c3ncc4c(N5CC6CCC(C5)N6)nc(OCC5(CN6CCC7(CC6)CC(N6CCN(c8ccc9c(c8)C(=O)N(C8CCC(=O)NC8=O)C9=O)CC6)C7)CC5)nc4c3F)c12 (stereo not given)
Activity [1]: 64% | Activity [2]: 48%

C#Cc1c(F)ccc2cc(O)cc(-c3ncc4c(N5CC6CCC(C5)N6)nc(OCC5(CN6CCC7(CC6)CC(N6CCC(c8ccc(NC9CCC(=O)NC9=O)cc8F)CC6)C7)CC5)nc4c3F)c12 (stereo not given)
Activity [1]: 79% | Activity [2]: 84%

C#Cc1c(F)ccc2cc(O)cc(-c3ncc4c(N5CC6CCC(C5)N6)nc(OCC5(CN6CCN(c7ccc8c(c7)C(=O)N(C7CCC(=O)NC7=O)C8=O)CC6)CC5)nc4c3F)c12 (stereo not given)
Activity [3]: 58%

C#Cc1c(F)ccc2cc(O)cc(-c3ncc4c(N5CC6CCC(C5)N6)nc(OCCCN5CCN(CC(=O)N6CCN(c7cccc8c7C(=O)N(C7CCC(=O)NC7=O)C8=O)CC6)CC5)nc4c3F)c12 (stereo not given)
Activity [4]: 7% | Activity [3]: 0% | Activity [1]: 2% | Activity [5]: 7%

C#Cc1c(F)ccc2cc(O)cc(-c3ncc4c(N5CC6CCC(C5)N6)nc(OCC5(CN6CCC7(CC6)CCN(c6ccc8c(c6)C(=O)N(C6CCC(=O)NC6=O)C8=O)CC7)CC5)nc4c3F)c12 (stereo not given)
Activity [1]: 57% | Activity [6]: 32%

C#Cc1c(F)ccc2cc(O)cc(-c3ncc4c(N5CC6CCC(C5)N6)nc(OCC5(CN6CCC7(CC6)CC(N6CCC(c8ccc9c(c8)C(=O)N(C8CCC(=O)NC8=O)C9=O)CC6)C7)CC5)nc4c3F)c12 (stereo not given)
Activity [1]: 59% | Activity [2]: 37%

C#Cc1c(F)ccc2cc(O)cc(-c3ncc4c(N5CC6CCC(C5)N6)nc(OCC5(CN6CCC7(CC6)CC(N6CCN(c8ccc(N9CCC(=O)NC9=O)cc8)CC6)C7)CC5)nc4c3F)c12
Activity [1]: 2% | Activity [2]: 6%

C#Cc1c(F)ccc2cc(O)cc(-c3ncc4c(N5CC6CCC(C5)N6)nc(OCC5(CN6CCC7(CC6)CC(N6CCN(c8ccc(NC9CCC(=O)NC9=O)cc8F)CC6)C7)CC5)nc4c3F)c12 (stereo not given)
Activity [1]: 64% | Activity [2]: 54%

C#Cc1c(F)ccc2cc(O)cc(-c3ncc4c(N5CC6CCC(C5)N6)nc(OC[C@@]56CCCN5C[C@H](F)C6)nc4c3F)c12 [MRTX-1133]
IC50 (ASPC1): 56.8 nM | inhibition in vivo at 1.81 mg/kg [7]: 58.7% | IC50 (AGS): 2.43 nM | IC50 [8]: 20.3 nM | IC50 [9]: 0.87 nM | Activity [10]: Non-toxic | IC50 [11]: 4.2 nM | IC50 [12]: 24.7 nM | IC50 [13]: 1.43 nM | IC50 [14]: 2.9 nM | IC50 [15]: 0.91 nM

C#Cc1c(F)ccc2cc(O)cc(-c3ncc4c(N5CC6CCC(C5)N6)nc(OCC5(CN6CCC7(CC6)CC(N6CCC(c8cccc(N9CCC(=O)NC9=O)c8)CC6)C7)CC5)nc4c3F)c12
Activity [1]: -10% | Activity [2]: 0%

C#Cc1c(F)ccc2cc(O)cc(-c3ncc4c(N5CC6CCC(C5)N6)nc(OCC5(CN6CCC7(CC6)CC(N6CCC(c8cccc9c8C(=O)N(C8CCC(=O)NC8=O)C9=O)CC6)C7)CC5)nc4c3F)c12 (stereo not given)
Activity [1]: -12% | Activity [2]: -3%

C#Cc1c(F)ccc2cc(O)cc(-c3ncc4c(N5CC6CCC(C5)N6)nc(OCCCN5CCN(C(=O)CN6CCN(c7ccc8c(c7)C(=O)N(C7CCC(=O)NC7=O)C8=O)CC6)CC5)nc4c3F)c12 (stereo not given)
Activity [4]: 23% | Activity [3]: 10% | Activity [1]: 9% | Activity [5]: 21%

C#Cc1c(F)ccc2cc(O)cc(-c3ncc4c(N5CC6CCC(C5)N6)nc(OCC5(CN6CCC7(CC6)CC(N6CCN(c8ccc(NC9%10CC(C9)C(=O)NC%10=O)cc8F)CC6)C7)CC5)nc4c3F)c12
Activity [1]: 67% | Activity [2]: 68%

C#Cc1c(F)ccc2cc(O)cc(-c3ncc4c(N5CC6CCC(C5)N6)nc(OCCCN5CCN(C(=O)CN6CCN(c7cccc8c7C(=O)N(C7CCC(=O)NC7=O)C8=O)CC6)CC5)nc4c3F)c12 (stereo not given)
Activity [4]: 7% | Activity [3]: 8% | Activity [1]: 12% | Activity [5]: 0%

C#Cc1c(F)ccc2cc(O)cc(-c3ncc4c(N5CC6CCC(C5)N6)nc(OCC5(CN6CCC7(CC6)CC(N6CCN(c8cccc9c8C(=O)N(C8CCC(=O)NC8=O)C9=O)CC6)C7)CC5)nc4c3F)c12 (stereo not given)
Activity [1]: 34% | Activity [2]: 21%

C#Cc1c(F)ccc2cc(O)cc(-c3ncc4c(N5CC6CCC(C5)N6)nc(OCCCN5CCN(CC(=O)N6CCN(c7ccc8c(c7)C(=O)N(C7CCC(=O)NC7=O)C8=O)CC6)CC5)nc4c3F)c12 (stereo not given)
Activity [4]: 9% | Activity [3]: -1% | Activity [1]: 1% | Activity [5]: 4%

C#Cc1c(F)ccc2cc(O)cc(-c3ncc4c(N5CC6CCC(C5)N6)nc(OCC5(CN6CCC7(CC6)CC(N6CCC(c8ccc(C9CCC(=O)NC9=O)cc8)CC6)C7)CC5)nc4c3F)c12 (stereo not given)
Activity [1]: 81% | Activity [2]: 32%

C#Cc1c(F)ccc2cc(O)cc(-c3ncc4c(N5CC6CCC(C5)N6)nc(OCC5(CN6CCC7(CC6)CC(N6CCN(c8cc9c(cc8F)c(N8CCC(=O)N(C)C8=O)nn9C)CC6)C7)CC5)nc4c3F)c12
IC50 (GTPase KRas): 4.02 nM | Activity (GP2d): inactive

C#Cc1c(F)ccc2cc(O)cc(-c3ncc4c(N5CC6CCC(C5)N6)nc(OCC5(CN6CCN(C(=O)CN7CCN(c8ccc9c(c8)C(=O)N(C8CCC(=O)NC8=O)C9=O)CC7)CC6)CC5)nc4c3F)c12 (stereo not given)
Activity [3]: 40%

C#Cc1c(F)ccc2cc(O)cc(-c3ncc4c(N5CC6CCC(C5)N6)nc(OCC5(CN6CCC7(CC6)CC(N6CCC(c8cccc(C9CCC(=O)NC9=O)c8)CC6)C7)CC5)nc4c3F)c12 (stereo not given)
Activity [1]: -20% | Activity [2]: -8%
